From patent US9000031B2, “Thioxanthone-based autophagy inhibitor therapies to treat cancer” (Spectrum Pharmaceuticals, Inc., priority 2010, dated 2015)
Values belong to the compound of their own block, whether it stands above or below them.

Experiments:
LC3-II, SQSTM1/p62 = test: LC3-II formation and SQSTM1/p62 accumulation with Bafilomycin A1 (FIG. 1F); assay type: cell-based
breast cancer cell lines [1] = test: Apoptosis by PI staining and FACS analysis of sub-G0/G1 DNA content; assay type: cell-based
Experimental: (§1) Cells from the breast cancer cell lines MDA-MB-231, BT-474, SKBR-3, and BT-20 were seeded into 96-well microculture plates at 10,000 cells per well and allowed to attach for 24 hours. Cells were then treated with 10 μM Lucanthone for 72 hours (48 hours for apoptosis assay). For immunoblotting, cells were harvested after treatment and cathepsin D levels were determined as described above. Pro-apoptotic effects following in vitro drug exposure were quantified by propidium iodide (PI) staining and fluorescence-activated cell sorting (FACS) analysis of sub-G0/G1 DNA content. Data is representative of three independent experiments.
Cells from the breast cancer cell lines MDA-MB-231, BT-474, SKBR-3, and BT-20 were seeded into 96-well microculture plates at 10,000 cells per well and allowed to attach for 24 hours. For immunoblotting, cells were then treated with 10 μM Lucanthone, 2.5 μM Vorinostat, or the combination for 72 hours, harvested, and cathepsin D levels were determined as described above. For the MTT cell viability assay, the cells were then treated with 10 μM Lucanthone, 2.5 μM Vorinostat, or the combination for 72 hours. After treatment, 3-(4,5-dimethylthiazol-2-yl)-2,5, diphenyltetrazolium bromide (MTT) was added after treatment and cell viability was quantified using a BioTek (Winooski, Vt.) microplate reader. […] Pro-apoptotic effects following in vitro drug exposure were quantified by propidium iodide (PI) staining and fluorescence-activated cell sorting (FACS) analysis of sub-G0/G1 DNA content. […]
Cells from the breast cancer cell lines MDA-MB-231 and BT-20 were seeded into 96-well microculture plates at 10,000 cells per well and allowed to attach for 24 hours. […] After treatment, 3-(4,5-dimethylthiazol-2-yl)-2,5, diphenyltetrazolium bromide (MTT) was added after treatment and cell viability was quantified using a BioTek (Winooski, Vt.) microplate reader. […] Pro-apoptotic effects following in vitro drug exposure were quantified by propidium iodide (PI) staining and fluorescence-activated cell sorting (FACS) analysis of sub-G0/G1 DNA content. […]

[2] = tested on: MDA-MB-231 breast cancer cell line; test: Vacuolization by Giemsa staining and transmission electron microscopy; assay type: cell-based; conditions: MDA-MB-231 cells, 48 hours; for accumulation of electron dense particles: 10 μM Lucanthone or 50 μM Chloroquine, transmission electron microscopy
Experimental: Increased vacuolization was visualized by Giemsa staining and transition electron microscopy. […] After drug treatment, cells were washed with PBS and fixed in methanol for 5 minutes. Cells were then incubated for 1 hour in Giemsa stain diluted 1:20 with deionized water. Cells were rinsed with water and imaged using an Olympus fluorescent microscope. Image-Pro Plus software Version 6.2.1 was used for image acquisition. Transmission electron microscopy of cells was performed using routine procedures. Sections were cut in an LKB Ultracut microtome (Leica, Deerfield, Ill.), stained with uranyl acetate and lead citrate, and examined in a JEM 1230 transmission electron microscope (JEOL, USA, Inc., Peabody, Mass.). Images were captured using the AMT Imaging System (Advanced Microscopy Techniques Corp, Danvers, Mass.).

breast cancer cell lines [3] = test: Cell viability by MTT assay in breast cancer cell lines; assay type: cell-based; conditions: for IC50: 72 h, read-out: mean IC50, breast cancer cell viability
Description: (§2) Data is representative of three independent experiments.
as §2, §2

[4] = tested on: MDA-MB-231 breast cancer cell line; test: Lysosomal membrane permeabilization by loss of acridine orange fluorescence; assay type: cell-based; conditions: MDA-MB-231 cells, 10 μM Lucanthone or 50 μM Chloroquine, 48 hours
Experimental: The appearance of LMP was monitored by loss of acridine orange fluorescence. Acidic lysosomes were visualized by acridine orange staining. […] Cells were washed with PBS and images were captured using an Olympus fluorescent microscope. Based on the acidity, lysosomes appeared as orange fluorescent cytoplasmic vesicles. Quantification of 5 random fields of acridine orange intensity was measured by immunofluorescence and image acquisition were performed using Image-Pro Plus software Version 6.2.1.

cathepsin D [5] = test: Cathepsin D protein levels and aggregation by immunocytochemistry; assay type: cell-based; conditions: immunocytochemistry (FIG. 3C)
[6] = tested on: HCT116 colorectal cancer cell lines; test: Cell viability in isogenic HCT116 p53 cell lines; assay type: cell-based; conditions: HCT116 p53+1^+ and p53−1^− cell lines
Description: (§3) Loss of function of p53 is a frequent event in human cancer that is associated with tumorigenesis and drug resistance. […] To investigated the role of p53 in Lucanthone-mediated cell death, […]

LC3-II = test: Accumulation of LC3-II by immunocytochemistry; assay type: cell-based; conditions: MDA-MB-231 cells, 10 μM Lucanthone, 48 hours
Experimental: Accumulation of LC3-II was visualized by immunocytochemistry. Cells from a MDA-MB-231 breast cancer cell line were plated on chamber slides and allowed to attach overnight. […] Following drug treatment, cells were fixed with 4% paraformaldehyde, permeabilized using 0.2% TRITON-X-100, and incubated overnight with indicated primary antibodies. Alexa Fluor 488 conjugated fluorescent secondary antibodies were used to visualize protein localization. Images were captured using an Olympus fluorescent microscope (Center Valley, P A) with a DP71 camera and a 60× objective. Image-Pro Plus software Version 6.2.1 (MediaCybernetics, Bethesda, Md.) was used for image acquisition.

cathepsin D [7] = test: Quantitative real-time PCR analysis of cathepsin D; assay type: cell-based; conditions: MDA-MB-231 and BT-20 cells, 10 μM Lucanthone, 48 hours, standardized to GAPDH
Experimental: The lysosomal protease cathepsin D is a key mediator of apoptosis and its release into the cytosol has been reported to promote cell death. Considering this, we further evaluated the role of cathepsin D during Lucanthone-mediated cell death using quantitative real-time PCR (qRT-PCR). To perform qRT-PCR, cells from a MDA-MB-231 or a BT-20 cell lines were treated with 10 μM Lucanthone for 48 hours and then harvested for analysis. Total RNA was isolated using the RNeasy Plus Mini Kit (Qiagen, Germantown, Md.) and treated with TURBO DNAfree™ Kit (Applied Biosystems, Foster City, Calif.). First-strand cDNA synthesis was performed from 1 μg RNA in a 20 μL reaction mixture using the high-capacity cDNA Reverse Transcription Kit (Applied Biosystems, Foster City, Calif.). Cathepsin D and GAPDH transcripts were amplified using commercially available TaqMan@Gene expression assays (Applied Biosystems, Foster City, Calif.). Levels of mRNAs were standardized to the expression of GAPDH and relative gene expression was calculated with the 2^−ΔCt method.

[8] = tested on: MDA-MB-231 breast cancer cell line; test: Lucanthone-induced apoptosis after cathepsin D siRNA knockdown; assay type: cell-based; conditions: MDA-MB-231 cells, 100 nM cathepsin D siRNA vs non-target siRNA, 10 μM Lucanthone, 48 hours
Experimental: To further establish the mechanistic role of cathepsin D in Lucanthone-induced apoptosis, siRNA was used to knockdown its expression (FIG. 4C). Preparation of siRNAs Cahepsin D and non-target SMARTpool siRNA were obtained from Dharmacon (Lafayette, Colo.). Cells from a MDA-MB-231 breast cancer cell line were transfected with 100 nM of either non-target or cathepsin D siRNA using Oligofectamine (Invitrogen, Carlsbad, Calif.) according to the manufacturers protocol. Transfected cells were incubated at 37° C. for 24 hours and then treated with 10 μM Lucanthone for 48 hours. Efficiency of RNAi was measured at 48 hours by immunoblotting using an α-cathepsin D antibody. Apoptosis was determined by PI staining and flow cytometry.

SQSTMI/p62 = SQSTMI/p62 levels and aggregation by immunoblotting and immunocytochemistry; assay type: cell-based; conditions: MDA-MB-231 cells
Experimental: This protein is degraded by autophagy, localized to cellular inclusion bodies, and has been proposed to play a role in facilitating protein aggregate clearance by autophagy. As such, a disruption of this process would result in the accumulation of SQSTMI/p62.
(§4) Levels and aggregation of SQSTMI/p62 were determined by immunoblotting and immunocytochemistry, respectively. […] Cells were harvested and were then lysed using routine procedures. Approximately 50 μg of total cellular protein from each sample were subjected to SDS-PAGE, proteins were transferred to nitrocellulose membranes, and the membranes were blocked with 5% nonfat milk in a Tris-buffered saline solution containing 0.1% TWEEN-20 for 1 hour. The blots were then probed overnight at 4° C. with primary antibodies, washed, and probed with species-specific secondary antibodies coupled to horseradish peroxidase. Immunoreactive material was detected by enhanced chemiluminescence (West Pico, Pierce, Inc., Rockville, Ill.).

[9] = tested on: MDA-MB-231 and BT-20 breast cancer cell lines; test: Affymetrix expression arrays; assay type: cell-based, human; conditions: MDA-MB-231 and BT-20 cells, 10 μM Lucanthone, 48 hours
Experimental: To further characterize the effects of Lucanthone on breast cancer cells, expression profiling was performed on breast cancer cell lines. Cells from a MDA-MB-231 and a BT-20 breast cancer cell line were treated with 10 μM Lucanthone for 48 hours. Total RNA was isolated using the RNeasy Plus Mini Kit (Qiagen, Germantown, Md.) and treated with TURBO DNA-Free™ Kit (Applied Biosystems, Foster City, Calif.). 300 ng of total RNA per sample was amplified and hybridized to […]® Human Gene 1.0 ST arrays (Affymetrix, Inc., Santa Clara, Calif.) according to the manufacturer's instructions. These arrays assay for the expression of about 28,869 well-annotated genes with 764,885 distinct probes. Affymetrix CEL files were imported into PARTEK® Genomics Suite™ 6.4 (Partek Inc., St. Louis, Mo.) using the default Partek normalization parameters and the robust multi-array average (RMA) analysis adjusted for probe sequence and GC content (GC-RMA). Data normalization was performed across all arrays using quantile normalization.

cathepsin D [10] = test: Cathepsin D expression by immunoblotting in breast cancer cell lines; assay type: cell-based; conditions: MDA-MB-231, BT-474, SKBR-3, BT-20 cells, 10 μM Lucanthone, 72 hours
Experimental: as §4
as §1, with “experiments. […]” for “experiments.”

cathepsin D [11] = test: Cathepsin D accumulation in isogenic HCT116 p53 cell lines; assay type: cell-based; conditions: HCT116 p53+1^+ and p53−1^− cell lines
Description: as §3

[12] = breast cancer cell lines, FIG. 1G

Structure (SMILES): CO/C1=C\C(C)=C\[C@@H](C)[C@@H](O)[C@@H](C)C/C(C)=C/C=C/[C@H](OC)[C@@H]([C@@H](C)[C@@H](O)[C@H](C)[C@@]2(O)C[C@@H](O)[C@H](C)[C@@H](C(C)C)O2)OC1=O [Bafilomycin A1]
LC3-II formation (LC3-II, SQSTM1/p62): induce LC3-II formation
SQSTM1/p62 accumulation (LC3-II, SQSTM1/p62): SQSTM1/p62 accumulation
apoptosis (breast cancer cell lines [1]; [12]): induce apoptosis in breast cancer cell lines

IC50 (breast cancer cell lines [3]): 66 µM
Structure (SMILES): CCN(CC)CCCC(C)Nc1ccnc2cc(Cl)ccc12 (stereo not shown) [Chloroquine]
accumulation of electron dense particles [2]: induced an accumulation of electron dense particles
acridine orange staining intensity of lysosomes (lysosomal acidity) [4]: loss of lysosomal acidity

Structure (SMILES): CCN(CC)CCNc1ccc(C)c2sc3ccccc3c(=O)c12 [Lucanthone, 1-((2-(Diethylamino)ethyl)amino)-4-methylthioxanthen-9-one]
cathepsin D protein levels and cytosolic aggregation (cathepsin D [5]): dramatically increased cathepsin D protein levels and promoted its cytosolic aggregation
cell viability [6]: reduced viability to a similar extent
lipid modification of LC3 into LC3-II (punctate localization to autophagosomes) (LC3-II): induced lipid modification of LC3-1 into LC3-II
cathepsin D mRNA levels (qRT-PCR) (cathepsin D [7]): induced a significant increase in cathepsin D levels in both cell lines
LC3-II formation (LC3-II, SQSTM1/p62): induce LC3-II formation
SQSTM1/p62 accumulation (LC3-II, SQSTM1/p62): SQSTM1/p62 accumulation
sensitivity to Lucanthone-mediated apoptosis of cells with reduced cathepsin D levels [8]: significantly less sensitive
apoptosis (breast cancer cell lines [1]; MDA-MB-231, BT-474, SKBR-3, BT-20 cells, 10 μM Lucanthone, 48 hours, PI-FACS): induces apoptosis in four different breast cancer cell lines
apoptosis (breast cancer cell lines [1]; [12]): induce apoptosis in breast cancer cell lines
SQSTMI/p62 levels (SQSTMI/p62; 10 μM Lucanthone, 48 hours, immunoblotting): strongly increased
SQSTMI/p62 aggregation (SQSTMI/p62; immunocytochemistry): aggregated in response to Lucanthone
genes induced: cathepsin D (CTSD), MMPI, CYPIAI (upregulated by at least 4-fold) [9]: increased in both cell lines
cathepsin D levels (cathepsin D [10]): strongly increased
accumulation of electron dense particles [2]: induced an accumulation of electron dense particles
cytoplasmic vacuolization ([2]; 10 μM Lucanthone, Giemsa staining): induced cytoplasmic vacuolization
IC50 (breast cancer cell lines [3]): 7.2 µM
cell viability (breast cancer cell lines [3]; panel of seven breast cancer cell lines, varying concentrations, 72 hours, MTT): reduced cell viability to a similar extent in a panel of seven breast cancer cell lines
acridine orange staining intensity of lysosomes (lysosomal acidity) [4]: decreased the red staining intensity of lysosomes
cathepsin D accumulation (cathepsin D [11]): induced cathepsin D accumulation equally regardless of p53 status
